Patent publication US20230085307A1, “PYRIDAZINONE COMPOUND AND HERBICIDE” (NISSAN CHEMICAL CORPORATION, priority 2019, published 2023)

Experiments:
chickweed = assay: Test Example 5: herbicidal effect by foliage application, plastic box (Table 20, symbol P); assay type: in vivo, common chickweed (Stellaria media); settings: foliage application, 320 g/ha, evaluated 3 weeks after application
Outline: (§1)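 Plants were sown into sterilized diluvial soil under about 1.5 cm cover and kept in a greenhouse at 25° C. to 30° C. Fourteen days on, foliage received an even spray of the diluted emulsion. Herbicidal or crop effect was judged three weeks afterwards.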

blackgrass [1] = assay: Test Example 4: herbicidal effect by soil treatment (Table 19, symbol J); assay type: in vivo, blackgrass (Alopecurus myosuroides); settings: amount of applied herbicide 320 g/ha
Outline: (§2)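 In this soil treatment, the formulated compound reached the seeds only through the soil: seeds were buried about 1.5 cm deep in sterilized diluvial soil, then the diluted emulsion was sprayed over the surface. After three weeks at 25° C. to 30° C. in a greenhouse, effects were graded on criteria from an earlier test.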

blackgrass [2] = assay: Test Example 5: herbicidal effect by foliage application, plastic box (Table 20, symbol J); assay type: in vivo, blackgrass (Alopecurus myosuroides); settings: foliage application, 320 g/ha, evaluated 3 weeks after application
Outline: as §1

Japanese bulrush = assay: Test Example 1: herbicidal activity, application before weed generation under submerged conditions (Table 16, symbol B); assay type: in vivo, Japanese bulrush (Schoenoplectus juncoides); settings: amount of applied herbicide 320 g/ha
Outline: (§3)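 Submerged Wagner pots (alluvial soil, 4 cm water) sown with weed seeds and planted with 2.5-leaf rice seedlings; emulsifiable concentrate diluted in water applied to water surface on sowing day. Held in greenhouse at 25-30 °C; injury scored 0-5 by herbicidal rate after three weeks.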

southern crabgrass [3] = assay: Test Example 4: herbicidal effect by soil treatment (Table 19, symbol F); assay type: in vivo, southern crabgrass (Digitaria ciliaris); settings: amount of applied herbicide 320 g/ha
Outline: as §2

late watergrass = assay: Test Example 2: herbicidal activity, application during weed generation under submerged conditions (Table 17, symbol A); assay type: in vivo, late watergrass (Echinochloa oryzicola); settings: application during weed generation under submerged conditions; amount of applied herbicide 320 g/ha
Outline: (§4)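 Alluvial soil in Wagner pots was flooded to 4 cm depth and sown with the three weeds together; pots were kept in a greenhouse at 25° C. to 30° C. At the one to two leaf stage, an emulsion formulation diluted in water to a set rate went onto the water surface; scored three weeks later.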

Italian ryegrass = assay: Test Example 5: herbicidal effect by foliage application, plastic box (Table 20, symbol K); assay type: in vivo, Italian ryegrass (Lolium multiflorum); settings: foliage application, 320 g/ha, evaluated 3 weeks after application
Outline: as §1

persian speedwell = assay: Test Example 4: herbicidal effect by soil treatment (Table 19, symbol R); assay type: in vivo, Persian speedwell (Veronica persica); settings: amount of applied herbicide 320 g/ha
Outline: as §2

oval-leafed pondweed [4] = assay: Test Example 2: herbicidal activity, application during weed generation under submerged conditions (Table 17, symbol C); assay type: in vivo, oval-leafed pondweed (Monochoria vaginalis); settings: application during weed generation under submerged conditions; amount of applied herbicide 320 g/ha
Outline: as §4

southern crabgrass [5] = assay: Test Example 5: herbicidal effect by foliage application, plastic box (Table 20, symbol F); assay type: in vivo, southern crabgrass (Digitaria ciliaris); settings: foliage application, 320 g/ha, evaluated 3 weeks after application
Outline: as §1

barnyard grass [6] = assay: Test Example 3: herbicidal effect by foliage application, Wagner pot (Table 18, symbol H); assay type: in vivo, barnyard grass (Echinochloa crus-galli); settings: amount of applied herbicide 320 g/ha
Outline: (§5)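 Plants were sown in alluvial soil held under 0.1–0.5 cm standing water and grown 14 days in a greenhouse at 25–30 °C. An emulsifiable formulation, water-diluted to the set dose, was then sprayed onto the foliage, and effects were scored three weeks later using previously defined criteria.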

redroot pigweed = assay: Test Example 4: herbicidal effect by soil treatment (Table 19, symbol N); assay type: in vivo, redroot pigweed (Amaranthus retroflexus); settings: amount of applied herbicide 320 g/ha
Outline: as §2

oval-leafed pondweed [7] = assay: Test Example 1: herbicidal activity, application before weed generation under submerged conditions (Table 16, symbol C); assay type: in vivo, oval-leafed pondweed (Monochoria vaginalis); settings: amount of applied herbicide 320 g/ha
Outline: as §3

barnyard grass [8] = assay: Test Example 5: herbicidal effect by foliage application, plastic box (Table 20, symbol H); assay type: in vivo, barnyard grass (Echinochloa crus-galli); settings: foliage application, 320 g/ha, evaluated 3 weeks after application
Outline: as §1

velvetleaf = assay: Test Example 4: herbicidal effect by soil treatment (Table 19, symbol M); assay type: in vivo, velvetleaf (Abutilon theophrasti); settings: amount of applied herbicide 320 g/ha
Outline: as §2

rice flat sedge = assay: Test Example 3: herbicidal effect by foliage application, Wagner pot (Table 18, symbol E); assay type: in vivo, rice flat sedge (Cyperus iria); settings: amount of applied herbicide 320 g/ha
Outline: as §5

false cleavers = assay: Test Example 4: herbicidal effect by soil treatment (Table 19, symbol Q); assay type: in vivo, false cleavers (Galium spurium); settings: amount of applied herbicide 320 g/ha
Outline: as §2

SMILES	P (chickweed) herbicidal effect grade (chickweed)	J: blackgrass, herbicidal effect grade (blackgrass [1])	J (blackgrass) herbicidal effect grade (blackgrass [2])	Herbicidal effect, B: Japanese bulrush (Japanese bulrush)	F: southern crabgrass, herbicidal effect grade (southern crabgrass [3])	herbicidal effect grade, A: late watergrass (late watergrass)	K (Italian ryegrass) herbicidal effect grade (Italian ryegrass)	R: persian speedwell, herbicidal effect grade (persian speedwell)	herbicidal effect grade, C: oval-leafed pondweed (oval-leafed pondweed [4])	F (southern crabgrass) herbicidal effect grade (southern crabgrass [5])	Herbicidal effect on H (barnyard grass), foliage application (barnyard grass [6])	N: redroot pigweed, herbicidal effect grade (redroot pigweed)	Herbicidal effect, C: oval-leafed pondweed (oval-leafed pondweed [7])	H (barnyard grass) herbicidal effect grade (barnyard grass [8])	M: velvetleaf, herbicidal effect grade (velvetleaf)	Herbicidal effect on E (rice flat sedge), foliage application (rice flat sedge)	Q: false cleavers, herbicidal effect grade (false cleavers)
Cc1ccc2oc(-c3ccc(OCC(C)C)cc3)c(-c3c(O)c(C)nn(C)c3=O)c2c1 [9-051]	5 (Herbicidal rate of 90% or more (almost completely withered))	5 (Herbicidal rate of 90% or more (almost completely withered))	5 (Herbicidal rate of 90% or more (almost completely withered))	5 (Herbicidal rate of 90% or more (almost completely withered))	1 (Herbicidal rate of 5% or more and less than 20%)	5 (Herbicidal rate of 90% or more (almost completely withered))	5 (Herbicidal rate of 90% or more (almost completely withered))	5 (Herbicidal rate of 90% or more (almost completely withered))	5 (Herbicidal rate of 90% or more (almost completely withered))	5 (Herbicidal rate of 90% or more (almost completely withered))	5 (Herbicidal rate of 90% or more (almost completely withered))	5 (Herbicidal rate of 90% or more (almost completely withered))	5 (Herbicidal rate of 90% or more (almost completely withered))	4 (Herbicidal rate of 70% or more and less than 90%)	3 (Herbicidal rate of 40% or more and less than 70%)	4 (Herbicidal rate of 70% or more and less than 90%)	
CSc1ccc(-c2oc3ccc(C)cc3c2-c2c(O)c(C)nn(C)c2=O)cc1 [9-055]	5 (Herbicidal rate of 90% or more (almost completely withered))		5 (Herbicidal rate of 90% or more (almost completely withered))	4 (Herbicidal rate of 70% or more and less than 90%)	0 (Herbicidal rate of 5% or less (almost no effect))	4 (Herbicidal rate of 70% or more and less than 90%)	5 (Herbicidal rate of 90% or more (almost completely withered))	5 (Herbicidal rate of 90% or more (almost completely withered))	3 (Herbicidal rate of 40% or more and less than 70%)	4 (Herbicidal rate of 70% or more and less than 90%)	5 (Herbicidal rate of 90% or more (almost completely withered))	5 (Herbicidal rate of 90% or more (almost completely withered))	4 (Herbicidal rate of 70% or more and less than 90%)	4 (Herbicidal rate of 70% or more and less than 90%)	5 (Herbicidal rate of 90% or more (almost completely withered))	5 (Herbicidal rate of 90% or more (almost completely withered))	0 (Herbicidal rate of 5% or less (almost no effect))
CCSc1ccc(-c2oc3ccc(C)cc3c2-c2c(O)c(C)nn(C)c2=O)cc1 [9-057]	5 (Herbicidal rate of 90% or more (almost completely withered))	0 (Herbicidal rate of 5% or less (almost no effect))	5 (Herbicidal rate of 90% or more (almost completely withered))	4 (Herbicidal rate of 70% or more and less than 90%)	5 (Herbicidal rate of 90% or more (almost completely withered))	5 (Herbicidal rate of 90% or more (almost completely withered))	5 (Herbicidal rate of 90% or more (almost completely withered))	5 (Herbicidal rate of 90% or more (almost completely withered))	4 (Herbicidal rate of 70% or more and less than 90%)	5 (Herbicidal rate of 90% or more (almost completely withered))	5 (Herbicidal rate of 90% or more (almost completely withered))	5 (Herbicidal rate of 90% or more (almost completely withered))	4 (Herbicidal rate of 70% or more and less than 90%)	3 (Herbicidal rate of 40% or more and less than 70%)	4 (Herbicidal rate of 70% or more and less than 90%)	5 (Herbicidal rate of 90% or more (almost completely withered))	
COCCOc1ccc(-c2oc3ccc(C)cc3c2-c2c(O)c(C)nn(C)c2=O)cc1 [9-063]	5 (Herbicidal rate of 90% or more (almost completely withered))	5 (Herbicidal rate of 90% or more (almost completely withered))	5 (Herbicidal rate of 90% or more (almost completely withered))	5 (Herbicidal rate of 90% or more (almost completely withered))	5 (Herbicidal rate of 90% or more (almost completely withered))	5 (Herbicidal rate of 90% or more (almost completely withered))	5 (Herbicidal rate of 90% or more (almost completely withered))	5 (Herbicidal rate of 90% or more (almost completely withered))	4 (Herbicidal rate of 70% or more and less than 90%)	5 (Herbicidal rate of 90% or more (almost completely withered))	5 (Herbicidal rate of 90% or more (almost completely withered))	5 (Herbicidal rate of 90% or more (almost completely withered))	5 (Herbicidal rate of 90% or more (almost completely withered))	5 (Herbicidal rate of 90% or more (almost completely withered))	5 (Herbicidal rate of 90% or more (almost completely withered))	4 (Herbicidal rate of 70% or more and less than 90%)	
Cc1nn(C)c(=O)c(-c2c(-c3ccc(Cl)cc3)sc3cccc(F)c23)c1O [11-001]	5 (Herbicidal rate of 90% or more (almost completely withered))		0 (Herbicidal rate of 5% or less (almost no effect))	5 (Herbicidal rate of 90% or more (almost completely withered))	0 (Herbicidal rate of 5% or less (almost no effect))	2 (Herbicidal rate of 20% or more and less than 40%)	3 (Herbicidal rate of 40% or more and less than 70%)	5 (Herbicidal rate of 90% or more (almost completely withered))	3 (Herbicidal rate of 40% or more and less than 70%)	0 (Herbicidal rate of 5% or less (almost no effect))	3 (Herbicidal rate of 40% or more and less than 70%)	5 (Herbicidal rate of 90% or more (almost completely withered))	5 (Herbicidal rate of 90% or more (almost completely withered))	0 (Herbicidal rate of 5% or less (almost no effect))	2 (Herbicidal rate of 20% or more and less than 40%)	5 (Herbicidal rate of 90% or more (almost completely withered))	0 (Herbicidal rate of 5% or less (almost no effect))
